Source: US5356907A, “1-cycloalkylpyridones as analgesics” (priority 1989, dated 1994)

Legend:
cardiac rhythm disorders = test: Anti-arythmic action in the rat (aconitine perfusion); type: in vivo; settings: intravenous, 5 minutes before aconitine 10 micrograms/mn, anaesthetised male rat
Experimental: 2) Anti-arythmic action in the rat
Male rate weighing 300-350 g anaesthetised by interperitonal route using 1.20 g/kg of urethane are tracheotomized and subjected to artificial respiration (40-50 insufflations of 3 ml/minute).
needles are implanted subcutaneously so as to record the rats' electrocardiogram on the DII derivation signal.
The test products are administered by intravenous route. Five minutes after administration of the product, the jugular vein is perfused with aconitine at the rate of 10 micrograms/mn and the time taken for the appearance of cardiac rhythm disorders is noted.
The results are expressed as a percentage of the increase in the time taken for cardiac rhythm disorders to appear relative to the controls and according to the dose of the test product.

opiated K Receptor = target: T1, opiated K Receptor (Cavia porcellus, UniProt P41144); test: Bonding to the opiated K Receptor in Vitro; type: binding; settings: displacement of 1 nM 3H-ethylketocyclazocin, guinea pig brain membranes, Tris pH 7.7, 25° C., 40 minutes
T1 construct: Membrane samples preserved at -30° C; (optionally for approximately 30 days) are used and prepared from guinea pig brains; from tissue; host or cells: guinea pig brain membranes
Experimental: 1) Bonding to the opiated K Receptor in Vitro
Membrane samples preserved at -30° C. (optionally for approximately 30 days) are used and prepared from guinea pig brains.
These samples are put in suspension in Tris pH 7.7 buffer. Fractions of 2 cm^3 are distributed in hemolysis tubes and 1 nM of 9^3 H-ethylketocyclazocin and the product to be studied are added. The product is first tested at 5×10^-6 M (in triplicate). When the test product displaces more than 50% of the radioactivity linked specifically to the receptor, it is tested again according to a range of 7 doses so as to determine the dose that inhibits 50% of the radioactivity linked specifically to the receptor. Thus the 50% inhibiting concentration is determined.
The non-specific bond is determined by the addition of known product under the name U-50488 H (Lahti et al. 1982, Life Sci. 31, 2257) at 10^-5 M (in triplicate). After incubating at 25° C. for 40 minutes, returning to the water bath at 0° C. for 5 minutes, filtering under vacuum, rinsing with Tris pH 7.7 buffer, the radioactivity is counted in the presence of Trition scintillator.
The result is expressed directly as 50% inhibiting concentration (IC50), namely as the concentration of studied product expressed in nM, necessary to displace 50% of the radioactivity specifically fixed on the studied receptor.

T1 sequence (P41144 whole entry): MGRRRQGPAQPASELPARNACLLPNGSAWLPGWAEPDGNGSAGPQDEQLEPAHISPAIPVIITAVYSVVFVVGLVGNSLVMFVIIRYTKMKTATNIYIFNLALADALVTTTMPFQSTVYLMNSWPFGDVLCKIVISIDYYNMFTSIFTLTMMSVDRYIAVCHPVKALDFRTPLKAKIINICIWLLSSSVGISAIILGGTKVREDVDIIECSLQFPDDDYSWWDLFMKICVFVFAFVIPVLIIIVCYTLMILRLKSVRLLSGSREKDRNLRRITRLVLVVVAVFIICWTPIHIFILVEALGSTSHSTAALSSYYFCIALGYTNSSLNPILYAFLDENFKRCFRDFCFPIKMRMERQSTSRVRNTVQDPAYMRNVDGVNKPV

Structure (SMILES)	Percentage increase in time (taken for cardiac rhythm disorders to appear relative to the controls) (cardiac rhythm disorders; dose 2.5 mg/kg, 2.5 mg/kg) [%]	Percentage increase in time (taken for cardiac rhythm disorders to appear relative to the controls) (cardiac rhythm disorders; dose 5 mg/kg, 5 mg/kg) [%]	IC50 (opiated K Receptor) [nM]	Percentage increase in time (taken for cardiac rhythm disorders to appear relative to the controls) (cardiac rhythm disorders; dose 2.5 mg/kg) [%]	Percentage increase in time (taken for cardiac rhythm disorders to appear relative to the controls) (cardiac rhythm disorders; dose 5 mg/kg) [%]
O=C1C(c2ccc(Cl)c(Cl)c2)CCCN1[C@@H]1CCCC[C@H]1N1CCCC1 (mixture of isomers) [Example 4, [Trans, (±)]-3-(3,4-dichlorophenyl)-1-[2-(1-pyrrolidinyl)-cyclohexyl]-2piperidinone]	23	48	22	–	–
O=C1C(c2ccc(Cl)c(Cl)c2)CCCN1[C@@H]1CCCC[C@H]1N1CCCC1 (mixture of isomers) [Example 5, [Trans, (±)]-3-(3,4-dichlorophenyl)-1-[2-(1-pyrrolidinyl)-cyclohexyl]-2-piperidinone]	26	33	–	–	–
COc1ccc(C2C(=O)CCN([C@@H]3CCCC[C@H]3N3CCCC3)C2=O)cc1OC (mixture of isomers) [Example 7, [Trans,(±)]-3-(3,4-dimethoxy-phenyl)-1-[2-(1-pyrrolidinyl)-cyclohexyl]-2,4-piperidinedione]	–	–	0.2	–	–
O=C1C(c2ccc(Cl)c(Cl)c2)=CCCN1[C@@H]1CCCC[C@H]1N1CCCC1 (relative stereo) [Example 3, [Trans, (±)]-3-(3,4-dichlorophenyl)-5,6-dihydro-1-[2-(1-pyrrolidinyl)cyclohexyl)-2-(1H)-pyridinone]	–	–	–	52	55
COc1ccc(C2=CCCN([C@@H]3CCCC[C@H]3N3CCCC3)C2=O)cc1OC (relative stereo) [Example 8, [Trans-(±)]-5,6-dihydro-3-(3,4-dimethoxyphenyl)-1-[2(1-pyrrolidinyl)-cyclohexyl]-2-[1H)-pyridinone]	–	–	9	–	–
